According to US9868705B2, “Tetra-aryl cyclobutane inhibitors of androgen receptor action for the treatment of hormone refractory cancer” (The Board of Trustees of the University of Illinois, priority 2013, dated 2018):
Residue numbers refer to the chain shown, from its start. pIC50: −log10 of the molar value. Read-outs that look alike come from different tables or passages of the source.

How the values were obtained:
[1] = test system: LNCaP (AR-T877A) xenograft; assay: LNCaP xenograft model of prostate cancer in mice; format: in vivo
From the text: Our goal in this example is to identify small molecules that block activity of mutant androgen receptors (ARs) but not wild type AR, by synthesizing a library of compounds, to explore possible mechanisms of action, and to evaluate therapeutic potential. A total of 75 tetra-aryl substituted cyclobutanes (CBs) were synthesized. FIG. 18 illustrates a general reaction scheme for the synthesis of some of these compounds from the photo cycloaddition of 2,4-dichloro-6-styrylpyrimidine. FIG. 19 illustrates a general reaction scheme for the synthesis from the photo cycloaddition of 2,4-disubstituted 6-styrylpyrimidines. LNCaP cell proliferation was evaluated. LNCaP cells are a cell line of human cells commonly used in the field of oncology. LNCaP cells are androgen-sensitive human prostate adenocarcinoma cells derived from the left supraclavicular lymph node metastasis from a person in 1977. They are adherent epithelial cells growing in aggregates and as single cells. […] . FIGS. 21A, B, C, and D are graphic summaries of the results for cyclobutane compound CB-7. […] Prostate cancer was the most common tumor among men in the United States in 2012, with over 240,000 diagnoses and approximately 28,000 deaths. […] . FIG. 23 illustrates the androgen receptor ligand binding domain bound to testosterone. FIG. 24 illustrates mouse survival data from a mutant androgen receptor-T877A xenograft experiment for CB-7 at various concentrations. […] . FIGS. 25A and B provide data on AR mutant selectivity for compounds CB-1 to CB-8. […] It is seen that the cyclobutanes show selectivity of mutant androgen receptor activation in the luciferase transcriptional assay in CV-1 cells (a commercially available cell line derived from the kidney of an African green monkey). FIGS. 26 and 27A and B illustrate data from a ligand competition assay for compounds CB-1, CB-6, and CB-7.
Based on the above results, we further evaluated the effects of CB 10 in vivo. […] We also utilized a traditional in vivo model of prostate cancer, the LNCaP xenograft model.

androgen receptor = assay: Whole-cell competition binding assay using 3H-R1881; conditions: whole cells; mutant AR and WT-AR
AR [2] = target: T1, AR (Homo sapiens, UniProt P10275); assay: AR target gene expression in XIP-AR cells; conditions: in the presence of R1881
T1 sequence (P10275 1-920): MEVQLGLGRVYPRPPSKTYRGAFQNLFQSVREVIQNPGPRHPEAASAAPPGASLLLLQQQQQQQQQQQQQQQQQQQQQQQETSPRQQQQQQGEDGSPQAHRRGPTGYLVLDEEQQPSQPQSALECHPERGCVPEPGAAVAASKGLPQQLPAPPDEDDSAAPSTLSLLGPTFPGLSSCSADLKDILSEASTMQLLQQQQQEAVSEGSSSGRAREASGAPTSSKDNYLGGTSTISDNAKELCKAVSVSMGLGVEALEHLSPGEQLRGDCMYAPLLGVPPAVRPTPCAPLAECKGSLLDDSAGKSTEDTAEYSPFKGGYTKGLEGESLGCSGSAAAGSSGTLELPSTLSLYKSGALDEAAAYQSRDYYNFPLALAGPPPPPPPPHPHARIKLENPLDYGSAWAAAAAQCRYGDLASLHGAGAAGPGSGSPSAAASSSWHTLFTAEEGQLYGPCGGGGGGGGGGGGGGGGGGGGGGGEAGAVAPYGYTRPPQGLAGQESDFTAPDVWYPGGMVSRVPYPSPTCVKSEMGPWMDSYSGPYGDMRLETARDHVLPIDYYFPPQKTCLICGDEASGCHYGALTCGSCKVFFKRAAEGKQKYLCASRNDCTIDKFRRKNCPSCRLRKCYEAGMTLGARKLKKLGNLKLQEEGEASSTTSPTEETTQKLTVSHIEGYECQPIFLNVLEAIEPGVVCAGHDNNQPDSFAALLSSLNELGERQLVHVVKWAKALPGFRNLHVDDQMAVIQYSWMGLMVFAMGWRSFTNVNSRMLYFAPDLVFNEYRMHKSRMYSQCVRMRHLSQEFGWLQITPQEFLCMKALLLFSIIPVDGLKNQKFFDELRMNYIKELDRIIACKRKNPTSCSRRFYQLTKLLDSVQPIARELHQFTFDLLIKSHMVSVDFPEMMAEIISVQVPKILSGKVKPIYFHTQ

wild type AR = target: T2, wild type AR (Homo sapiens, UniProt P10275); assay: MMTV-luciferase transcription assay in CV-1 cells, wild type AR; format: cell-based; conditions: CV1 transient transfection, MMTV-Luciferase reporter; read-out: IC50 WT
T2 construct: expressed in transfected cells; host or cells: CV-1
T2 sequence (P10275 1-920): T1 sequence (P10275 1-920)
From the text: (§1) These compounds were screened using an AR-responsive MMTV transcription assay in CV-1 cells, utilizing both wild type and T877A (LNCaP) AR. […]

T877A (LNCaP) AR = target: T3, T877A (LNCaP) AR (Homo sapiens, UniProt P10275, T878A); assay: MMTV-luciferase transcription assay in CV-1 cells, T877A AR; format: cell-based
T3 construct: expressed in transfected cells; host or cells: CV-1
T3 sequence (P10275 1-920 T878A): T1 sequence (P10275 1-920) with T878A
From the text: as §1

W741C AR = target: T4, W741C AR (Homo sapiens, UniProt P10275, W742C); assay: MMTV-luciferase transcription assay in CV-1 cells, W741C AR
T4 sequence (P10275 1-920 W742C): T1 sequence (P10275 1-920) with W742C

AR [3] = target: T1, AR; assay: Cellular location of AR by microscopy
LNCaP cells = assay: LNCaP cell proliferation; conditions: androgen-stimulated LNCaP cells
AR [4] = target: T1, AR; assay: Chromatin immunoprecipitation of AR at androgen-response elements in XIP-AR cells
XIP-AR cells = assay: XIP-AR cell proliferation; conditions: XIP-AR overexpressing cells
[5] = target: T5, T877A mutant androgen receptor (Homo sapiens, UniProt P10275, T878A); assay: FKBP51 endogenous gene expression in LNCaP-XIP cells; format: cell-based; conditions: FKBP51 expression, T877A mutant receptor
T5 construct: endogenous in cells; host or cells: LNCaP-XIP
T5 sequence (P10275 1-920 T878A): T1 sequence (P10275 1-920) with T878A
From the text: (§2) FIG. 44 depicts data for dose-dependent inhibition of androgen receptor-dependent endogenous gene expression of FKBP51 by Compound 1 of Example IV in LNCaP cells producing exclusively T877A mutant androgen receptor (LNCaP-XIP) and LNCaP cells transfected with wild type androgen receptor (LNCaP-androgen receptor, ratio of wild type to T877A receptor is ca. 3:1).
(§3) To more fully characterize the selectivity of compound 1 for the mutant receptor, we measured its inhibitory potential against the WT and T877A mutant receptor in an AR-dependent luciferase transcription assay in CV-1 cells (FIGS. 43A and B).

[6] = test system: wild type androgen receptor; assay: FKBP51 endogenous gene expression in LNCaP-AR cells (wild type AR overexpressed); format: cell-based, human; conditions: at 20 M (so in the source)
From the text: as §2, §3

AR [7] = target: T1, AR; assay: AR relative binding affinity (RBA)
[8] = LNCaP (AR-T877A) xenograft, concentrations comparable to MDV3100

## COc1ccc(CNc2cc([C@H]3[C@H](c4ccccc4)[C@H](c4cc(NCc5ccc(OC)cc5)nc(NCc5ccc(OC)cc5)n4)[C@H]3c3ccccc3)nc(NCc3ccc(OC)cc3)n2)cc1 [CB-7]
[1]; [8]
  survival of mice: increases survival of mice
  tumor size: decreases tumor size
Androgen receptor
  competition with 3H-R1881 for binding to AR: compete with 3H-R1881

## COc1cc(C2C(c3ccccc3)C(c3cc(OC)nc(OC)n3)C2c2ccccc2)nc(OC)n1 (stereo not drawn) [CB 1]
AR [2]
  reversal of androgen stimulated gene expression: less effective
Androgen receptor
  competition with 3H-R1881 for binding to AR: effectively compete against R1881 binding

## CNc1cc([C@H]2[C@H](c3ccccc3)[C@H](c3cc(NC)nc(NC)n3)[C@H]2c2ccccc2)nc(NC)n1 [CB-51]
Wild type AR
  pIC50: < 4.70
T877A (LNCaP) AR; CV1 transient transfection, MMTV-Luciferase reporter, read-out: IC50 T877A
  pIC50: < 4.70
W741C AR; CV1 transient transfection, MMTV-Luciferase reporter
  IC50 W741C: Toxic

## C[C@]1(O)CC[C@H]2[C@@H]3CCC4=CC(=O)CCC4=C3C=C[C@@]21C [R1881, reference compound]
AR [3]
  cellular location of AR after treatment: promote nuclear translocation

## Clc1nccc([C@H]2[C@H](c3ccccc3)[C@@H](c3ccnc(Cl)n3)[C@H]2c2ccccc2)n1 [CB 10]
[1]; escalating dose 5 mpk to 100 mpk
  tumor weight at study termination: significant dose dependent inhibition of tumor growth
[1]; intact male mice bearing LNCaP xenografts, 50 mpk or 100 mpk
  tumor growth: significantly inhibited
LNCaP cells
  inhibition of LNCaP cell proliferation: equally as well as MDV
AR [3]; microscopy
  cellular location of AR after treatment: AR is primarily outside of the nucleus
AR [2]
  reversal of androgen stimulated gene expression: reverse androgen stimulated gene expression similar to MDV
Androgen receptor
  competition with 3H-R1881 for binding to AR: effectively compete against R1881 binding
AR [4]
  AR recruitment to androgen-response elements of PSA and NKX3.1: inhibit the recruitment

## CC(C)(O)C(=O)Nc1ccc([N+](=O)[O-])c(C(F)(F)F)c1 [OHF, hydroxyflutamide, reference compound]
XIP-AR cells
  cell proliferation, compound alone: promote cell proliferation

## Cc1cc([C@H]2[C@H](c3ccccc3)[C@H](c3cc(C)nc(C)n3)[C@H]2c2ccccc2)nc(C)n1 [CB-49]
[5]
  concentration at which maximal inhibition is obtained: 6 µM
[6]
  inhibition of FKBP51 gene expression: ca. 80%
AR [7]
  AR RBA: 0.027%

## Clc1nccc([C@H]2[C@H](c3ccccc3)[C@@H](c3ccnc(Cl)n3)[C@H]2c2ccccc2)n1 [DPM-21]
T877A (LNCaP) AR; AR-dependent luciferase transcription assay in CV-1 cells
  increase in potency for T877A mutant over WT: approximately 100 fold
T877A (LNCaP) AR; T877A AR
  IC50 lower than 1: approximately 10 fold
T877A (LNCaP) AR; read-out: IC50 for T877A AR
  pIC50: ~7.00
W741C AR; AR-dependent luciferase transfection assay
  increase in potency for W741C AR over WT receptor: approximately 10 fold
